Results reported in ChEMBL document CHEMBL5584236, “Development of novel bisphenol derivatives with a membrane-targeting mechanism as potent gram-positive antibacterial agents” (Eur J Med Chem, 2024).
The source made the active and inactive calls. The rule behind the calls is not given here.

Columns and labels:
[1] = tested on: Staphylococcus aureus; experiment: Antibacterial activity against Staphylococcus aureus ATCC29213 assessed as reduction in microbial growth incubated for 22 to 24 hrs by CLSI based broth microdilution method; format: functional; settings: time 22-24 hrs
[2] = tested on: Staphylococcus aureus; experiment: Antibacterial activity against methicillin-resistant Staphylococcus aureus NCTC10442 assessed as reduction in bacterial growth incubated for 22 to 24 hrs in presence of MgCl2 by CLSI based broth microdilution method; format: functional; settings: time 22-24 hrs
[3] = tested on: Staphylococcus aureus; experiment: Bactericidal activity against methicillin-resistant Staphylococcus aureus NCTC10442 assessed as cell killing at 4 times of MIC measured with in 2 hrs by time kill assay relative to control; format: functional
[4] = tested on: Staphylococcus aureus; experiment: Antibacterial activity against Staphylococcus aureus ATCC29213 assessed as reduction in bacterial growth incubated for 22 to 24 hrs in presence of FeCl3 by CLSI based broth microdilution method; format: functional; settings: time 22-24 hrs
[5] = Cytotoxicity against mouse NCTC clone 929 cells assessed as viable cells at 6.25 ug/ml incubated for 24 hrs by CCK-8 assay relative to control; format: toxicity, cell-based; settings: NCTC clone 929 (L929) cells, at 6.25 µg/mL, read-out: Activity
[6] = Cytotoxicity against HEK293 cells assessed as viable cells at 50 ug/ml incubated for 24 hrs by CCK-8 assay relative to control; format: toxicity, cell-based; settings: human, at 50 µg/mL, read-out: Activity
[7] = tested on: Klebsiella pneumoniae; experiment: Synergistic […] activity against Klebsiella pneumoniae ATCC10031 assessed as fractional inhibitory concentration index incubated for 22 to 24 hrs in presence of amikacin by CLSI based broth microdilution method; format: functional; settings: time 22-24 hrs
[8] = tested on: Staphylococcus aureus; experiment: Disruption of cell membrane integrity in methicillin-resistant Staphylococcus aureus NCTC10442 assessed as increase in red fluorescence at 8 time of MIC measured after 15 mins by SYTO 9/PI staining based laser confocal microscopic analysis; format: functional, organism-based
[9] = tested on: Staphylococcus aureus; experiment: Antibacterial activity against Staphylococcus aureus ATCC29213 infected in C57BL6 mouse corneal infection model assessed as log reduction in CFU at 0.5 % administered topically on corneas for four times in 3 days by MHA plate counting method; format: functional; settings: route top, time 3 day
[10] = tested on: Staphylococcus aureus; experiment: Bactericidal activity against Staphylococcus aureus ATCC29213 assessed as log reduction in bacterial load at 8 times of MIC measured with in 4 hrs by time kill assay; format: functional
[11] = tested on: Klebsiella pneumoniae; experiment: Antibacterial activity against Klebsiella pneumoniae ATCC10031 assessed as reduction in microbial growth incubated for 22 to 24 hrs by CLSI based broth microdilution method; format: functional; settings: time 22-24 hrs
[12] = tested on: Staphylococcus aureus; experiment: Synergistic […] activity against Staphylococcus aureus ATCC29213 assessed as fractional inhibitory concentration index incubated for 22 to 24 hrs in presence of teicoplanin by CLSI based broth microdilution method; format: functional; settings: time 22-24 hrs
[13] = tested on: Staphylococcus aureus; experiment: Synergistic […] activity against Staphylococcus aureus ATCC29213 assessed as fractional inhibitory concentration index incubated for 22 to 24 hrs in presence of linezolid by CLSI based broth microdilution method; format: functional; settings: time 22-24 hrs
[14] = tested on: Escherichia coli; experiment: Induction of outer membrane permeabilization in Escherichia coli ATCC25922 assessed as increase in fluorescence intensity measured upto 1 hr by NPN uptake assay; format: functional, organism-based
[15] = tested on: Staphylococcus aureus; experiment: Antibacterial activity against Staphylococcus aureus ATCC29213 assessed as reduction in bacterial growth incubated for 22 to 24 hrs in presence of FeCl2 by CLSI based broth microdilution method; format: functional; settings: time 22-24 hrs
[16] = tested on: Staphylococcus aureus; experiment: Antibacterial activity against Staphylococcus aureus ATCC25923 assessed as reduction in microbial growth incubated for 22 to 24 hrs by CLSI based broth microdilution method; format: functional; settings: time 22-24 hrs
[17] = tested on: Staphylococcus aureus; experiment: Synergistic […] activity against Staphylococcus aureus ATCC29213 assessed as fractional inhibitory concentration index incubated for 22 to 24 hrs in presence of vancomycin by CLSI based broth microdilution method; format: functional; settings: time 22-24 hrs
[18] = tested on: Klebsiella pneumoniae; experiment: Synergistic […] activity against Klebsiella pneumoniae ATCC10031 assessed as fractional inhibitory concentration index incubated for 22 to 24 hrs in presence of gentamicin by CLSI based broth microdilution method; format: functional; settings: time 22-24 hrs
[19] = tested on: Staphylococcus aureus; experiment: Antibacterial activity against methicillin-resistant Staphylococcus aureus N315 assessed as reduction in microbial growth incubated for 22 to 24 hrs by CLSI based broth microdilution method; format: functional; settings: time 22-24 hrs
[20] = tested on: Staphylococcus aureus; experiment: Antibacterial activity against Staphylococcus aureus ATCC29213 assessed as reduction in bacterial growth incubated for 22 to 24 hrs in presence of KCl by CLSI based broth microdilution method; format: functional; settings: time 22-24 hrs
[21] = tested on: Staphylococcus aureus; experiment: Synergistic […] activity against methicillin-resistant Staphylococcus aureus NCTC10442 assessed as fractional inhibitory concentration index incubated for 22 to 24 hrs in presence of fusidic acid by CLSI based broth microdilution method; format: functional; settings: time 22-24 hrs
[22] = tested on: Acinetobacter baumannii; experiment: Synergistic […] activity against Acinetobacter baumannii ATCC17978 assessed as fractional inhibitory concentration index incubated for 22 to 24 hrs in presence of amikacin by CLSI based broth microdilution method; format: functional; settings: time 22-24 hrs
[23] = tested on: Acinetobacter baumannii; experiment: Synergistic […] activity against Acinetobacter baumannii ATCC17978 assessed as fractional inhibitory concentration index incubated for 22 to 24 hrs in presence of tobramycin by CLSI based broth microdilution method; format: functional; settings: time 22-24 hrs
[24] = Cytotoxicity against mouse NCTC clone 929 cells assessed reduction in cell viability incubated for 24 hrs by CCK-8 assay; format: toxicity, cell-based; settings: NCTC clone 929 (L929) cells
[25] = tested on: Staphylococcus aureus; experiment: Antibacterial activity against Staphylococcus aureus ATCC29213 assessed as reduction in bacterial growth incubated for 22 to 24 hrs in presence of ZnSO4.7H2O by CLSI based broth microdilution method; format: functional; settings: time 22-24 hrs
[26] = Cytotoxicity against mouse NCTC clone 929 cells assessed as viable cells at 12.5 ug/ml incubated for 24 hrs by CCK-8 assay relative to control; format: toxicity, cell-based; settings: NCTC clone 929 (L929) cells, at 12.5 µg/mL, read-out: Activity
[27] = Cytotoxicity against HEK293 cells assessed as viable cells at 6.25 ug/ml incubated for 24 hrs by CCK-8 assay relative to control; format: toxicity, cell-based; settings: human, at 6.25 µg/mL, read-out: Activity
[28] = tested on: Staphylococcus aureus; experiment: Antibacterial activity against methicillin-resistant Staphylococcus aureus N315 assessed as reduction in bacterial growth incubated for 22 to 24 hrs in presence of MgCl2 by CLSI based broth microdilution method; format: functional; settings: time 22-24 hrs
[29] = Cytotoxicity against HEK293 cells assessed as viable cells at 100 ug/ml incubated for 24 hrs by CCK-8 assay relative to control; format: toxicity, cell-based; settings: human, at 100 µg/mL, read-out: Activity
[30] = tested on: Staphylococcus aureus; experiment: Synergistic […] activity against Staphylococcus aureus ATCC29213 assessed as fractional inhibitory concentration index incubated for 22 to 24 hrs in presence of fusidic acid by CLSI based broth microdilution method; format: functional; settings: time 22-24 hrs
[31] = tested on: Staphylococcus aureus; experiment: Synergistic […] activity against methicillin-resistant Staphylococcus aureus NCTC10442 assessed as fractional inhibitory concentration index incubated for 22 to 24 hrs in presence of vancomycin by CLSI based broth microdilution method; format: functional; settings: time 22-24 hrs
[32] = tested on: Staphylococcus aureus; experiment: Antibacterial activity against methicillin-resistant Staphylococcus aureus N315 assessed as reduction in bacterial growth incubated for 22 to 24 hrs in presence of CaCl2 by CLSI based broth microdilution method; format: functional; settings: time 22-24 hrs
[33] = tested on: Staphylococcus aureus; experiment: Antibacterial activity against methicillin-resistant Staphylococcus aureus N315 assessed as reduction in bacterial growth incubated for 22 to 24 hrs in presence of FeCl2 by CLSI based broth microdilution method; format: functional; settings: time 22-24 hrs

Question: With `COC(=O)[C@H](CCCNC(=N)N)NC(=O)[C@H](CCCNC(=N)N)NC(=O)COc1ccc(S(=O)(=O)c2ccc(OC/C=C(/C)CCC=C(C)C)cc2)cc1` as the compound, how does the MIC [1] read?
Answer: 1.56 µg/mL

Question: And the MIC [2]?
Answer: 1.56 µg/mL

Question: What about the Activity [3] of the same compound?
Answer: 99.99%

Question: What about the MIC [4] of the same compound?
Answer: 1.56 µg/mL

Question: And the viability at 24 h, 6.25 ug/ml [5]?
Answer: 91.5%

Question: And the viability at 24 h, 50 ug/ml [6]?
Answer: 91.5%

Question: What about the “fractional inhibitory concentration index (FICI)” value [7] of the same compound?
Answer: 0.31

Question: And the Activity [8]?
Answer: Active

Question: And the “log(activity)” value [9]?
Answer: 6.9

Question: What about the “log(activity)” value [10] of the same compound?
Answer: 3

Question: And the MIC [11]?
Answer: 6.25 µg/mL

Question: And the “fractional inhibitory concentration index (FICI)” value [12]?
Answer: 0.31

Question: And the “fractional inhibitory concentration index (FICI)” value [13]?
Answer: 0.28

Question: And the Activity [14]?
Answer: Dose-Dependent Effect

Question: And the MIC [15]?
Answer: 1.56 µg/mL

Question: What about the MIC [16] of the same compound?
Answer: 3.12 µg/mL

Question: What about the “fractional inhibitory concentration index (FICI)” value [17] of the same compound?
Answer: 0.5

Question: And the “fractional inhibitory concentration index (FICI)” value [18]?
Answer: 0.5

Question: What about the MIC [19] of the same compound?
Answer: 0.78 µg/mL

Question: And the MIC [20]?
Answer: 1.56 µg/mL

Question: And the “fractional inhibitory concentration index (FICI)” value [21]?
Answer: 0.5

Question: What about the “fractional inhibitory concentration index (FICI)” value [22] of the same compound?
Answer: 0.28

Question: And the “fractional inhibitory concentration index (FICI)” value [23]?
Answer: 0.56

Question: And the CC50 at 24 h [24]?
Answer: > 100 µg/mL

Question: And the MIC [25]?
Answer: 1.56 µg/mL

Question: What about the viability at 24 h, 12.5 ug/ml [26] of the same compound?
Answer: 88.9%

Question: What about the viability at 24 h, 6.25 ug/ml [27] of the same compound?
Answer: 96.1%

Question: What about the MIC [28] of the same compound?
Answer: 1.56 µg/mL

Question: And the viability at 24 h, 100 ug/ml [29]?
Answer: 79.4%

Question: What about the “fractional inhibitory concentration index (FICI)” value [30] of the same compound?
Answer: 0.28

Question: What about the “fractional inhibitory concentration index (FICI)” value [31] of the same compound?
Answer: 0.5

Question: And the MIC [32]?
Answer: 3.12 µg/mL

Question: What about the MIC [33] of the same compound?
Answer: 1.56 µg/mL
